Assay [1] relates to cetuximab or the meditope-enabled trastuzumab. The assay is described as follows: Lifetime of the meditope-Fab interaction. Conditions: 37° C. It counts as binding. From the text: Since the cyclic, twelve residue peptide binds in a hole that runs through the middle of the Fab arm, Applicants have named it a meditope. Antigen binding is not altered after grafting or in the presence of the meditope^14-15. As such, Applicants understood that they could use the meditope interaction as a hitch for the delivery of cytotoxins, imaging agents, or biologics. […] Applicants further improved the lifetime by creating a mechanical bond by modifying the arginine at position 8 with an azide, threading it through the Fab hole, and using click chemistry to sterically block its dissociation. While the lifetime of this mechanically interlocked Fab complex is difficult to ascertain, Applicants were capable of imaging tumors in animal xenografts.

The subject of assay [2] is mutated I83 trastuzumab memAb (I83 mutated to glutamate). Put plainly: SPR of meditope peptide variants binding to immobilized memAb variant. Conditions: SPR at 37° C.; original meditope; vs original trastuzumab memAb. How it is done: FIG. 3A-3H. […] FIG. 3E-H) SPR sensograms collected at 37° C.
In a further assay the test system is SKBR3 cells. The assay is described as follows: Cell viability (CellTiter-Glo) for DM1 and MMAE conjugates. It counts as cell-based. Conditions: 72 h, read-out: EC50 (cell viability / lysis).

Take “Ac-CQFDLSTRRLKC-Am (Ac-CQFDLSTRRLKC-NH2; not fully specified (bridges); printed as Ac-CQFDLSTRRLKC-Am; also: cyclic, kind not given here) [original meditope, serine at position 6]”: the “lifetime of the meditope peptide on the Fab” value in assay [1] is recorded as “seconds”. The “increase in affinity with I83 mutated to glutamate” value in assay [2] was ~25.

As to trastuzumab emtansine [clinical DM1], in the assay on SKBR3 cells, the EC50 was determined as 0.093 nM.

Values taken from patent US20200368364A1, “CYSTEINE PEPTIDE-ENABLED ANTIBODIES” (City of Hope, priority 2016, published 2020).
